These results are taken from ChEMBL document CHEMBL4033762, “Development of Quinazoline/Pyrimidine-2,4(1H,3H)-diones as Agonists of Cannabinoid Receptor Type 2” (ACS Med Chem Lett, 2017).

In one data set the target is Cannabinoid receptor 1 (Homo sapiens, UniProt P21554). Put plainly: Agonist activity at CB1 receptor (unknown origin) expressed in CHO cells co-expressing G-alpha16 incubated for 24 hrs by fluo-4 AM dye based whole-cell calcium mobilization assay.
In data set [1] the target is T1, Cannabinoid receptor 2 (Homo sapiens, UniProt P34972). In words: Agonist activity at CB2 receptor (unknown origin) expressed in CHO cells co-expressing G-alpha16 incubated for 24 hrs by fluo-4 AM dye based whole-cell calcium mobilization assay. It counts as functional. On the technique in general: Calcium flux is commonly read through the fluorescence of an indicator in the cells.

Data set [2] addresses T1, Cannabinoid receptor 2. In words: Agonist activity at CB2 receptor (unknown origin) expressed in CHO cells co-expressing G-alpha16 incubated for 24 hrs by fluo-4 AM dye based whole-cell calcium mobilization assay relative to CP55940. The format is functional.
Data set [3] in a line: Ratio of EC50 for agonist activity at CB1 receptor (unknown origin) expressed in CHO cells to EC50 for agonist activity at CB2 receptor (unknown origin) expressed in CHO cells. Set-up: species or system Homo sapiens.
A short description of data set [4]: Lipophilicity, log P of the compound incubated at 37 degC for 20 hrs by HPLC based shake flask method. The format is physicochemical.

Structures are written as SMILES.

T1 sequence (P34972 whole entry): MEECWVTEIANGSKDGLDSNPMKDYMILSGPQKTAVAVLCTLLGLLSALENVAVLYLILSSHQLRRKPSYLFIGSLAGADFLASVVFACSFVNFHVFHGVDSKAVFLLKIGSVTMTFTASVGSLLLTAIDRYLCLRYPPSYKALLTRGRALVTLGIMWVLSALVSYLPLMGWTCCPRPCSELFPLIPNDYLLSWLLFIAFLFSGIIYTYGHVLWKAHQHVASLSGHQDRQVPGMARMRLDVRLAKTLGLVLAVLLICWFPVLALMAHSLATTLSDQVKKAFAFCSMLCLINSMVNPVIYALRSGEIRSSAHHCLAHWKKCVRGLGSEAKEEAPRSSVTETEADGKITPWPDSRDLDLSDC
Chain of Cannabinoid receptor 1 (P21554 whole entry): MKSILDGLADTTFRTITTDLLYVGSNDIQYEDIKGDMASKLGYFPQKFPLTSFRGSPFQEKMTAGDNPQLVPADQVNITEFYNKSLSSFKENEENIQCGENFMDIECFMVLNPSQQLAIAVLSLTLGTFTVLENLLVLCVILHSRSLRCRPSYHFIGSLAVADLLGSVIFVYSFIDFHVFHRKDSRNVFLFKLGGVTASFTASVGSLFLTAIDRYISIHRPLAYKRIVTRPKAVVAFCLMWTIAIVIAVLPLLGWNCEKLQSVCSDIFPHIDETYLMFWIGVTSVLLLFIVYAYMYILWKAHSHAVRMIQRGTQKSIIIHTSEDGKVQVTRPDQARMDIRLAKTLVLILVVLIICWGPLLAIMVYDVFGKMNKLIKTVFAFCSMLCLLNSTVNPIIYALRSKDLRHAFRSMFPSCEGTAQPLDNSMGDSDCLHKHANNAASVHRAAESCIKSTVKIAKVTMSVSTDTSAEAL

As a reminder, the EC50 is the concentration at which the effect is half-maximal. The Emax is the greatest response seen or fitted, relative to the assay's reference. As to `CCCn1c(=O)n(CC(=O)NC(C)(C)C)c(=O)c2cccc(C)c21`, the EC50 on Cannabinoid receptor 1 is greater than 10000 nM; on Cannabinoid receptor 2 [1], 407 nM. For the same molecule, the Emax at Cannabinoid receptor 2 [2] is 121%. For the same molecule, the “Ratio EC50” value in data set [3] was greater than 25.
For the molecule `CCCCCn1c(=O)n(CC(=O)NCCCC)c(=O)c2c(OC)cccc21`, the concentration for a half-maximal effect (EC50) at Cannabinoid receptor 1 and on Cannabinoid receptor 2 [1] was greater than 10000 nM in each case.
For the molecule `CCCCCn1c(=O)n(CC(=O)NC(C)(C)C)c(=O)c2ccccc21`, the results for the EC50 at Cannabinoid receptor 1 and on Cannabinoid receptor 2 [1] were greater than 10000 nM and 86.5 nM, respectively. At Cannabinoid receptor 2 [2], the Emax worked out at 80%. Also, the “Ratio EC50” value in data set [3] is listed as greater than 116.
In the case of `CCCCCCn1c(C)cc(=O)n(CC(=O)NC(C)(C)C)c1=O`, the half-maximal effective concentration (EC50) on Cannabinoid receptor 1 is greater than 10000 nM; at Cannabinoid receptor 2 [1], 767 nM. Besides, the Emax at Cannabinoid receptor 2 [2] stood at 65%. Further, in data set [3], the “Ratio EC50” value is recorded as greater than 13.
For `CCCCn1c(=O)n(CC(=O)NC(C)(C)C)c(=O)c2ccccc21`, the concentration giving a half-maximal response (EC50) was greater than 10000 nM on Cannabinoid receptor 1 and 112 nM at Cannabinoid receptor 2 [1]. Also, the Emax on Cannabinoid receptor 2 [2] came out at 101%. In addition, the “Ratio EC50” value in data set [3] is given as greater than 89.
With `CCCCn1c(C)cc(=O)n(CC(=O)NC(C)(C)C)c1=O`, the 50% effective concentration (EC50) at Cannabinoid receptor 1 and on Cannabinoid receptor 2 [1] was greater than 10000 nM each time.
For `CCCCCn1c(C)cc(=O)n(CC(=O)NCCCC)c1=O`, the EC50 at Cannabinoid receptor 1 and at Cannabinoid receptor 2 [1] was greater than 10000 nM throughout.
In general, logP refers to the decadic logarithm of the partition coefficient of the neutral form, usually between octanol and water. For the molecule `CCCCN1C(=O)/C(=C/NC2CCCCC2)C(=O)c2cccc(C)c21`, the logP at 20 h in data set [4] was found to be 4.35.
Take `CCCCCn1c(=O)n(CC(=O)NCCCC)c(=O)c2c(Cl)cccc21`: the EC50 at Cannabinoid receptor 1 is greater than 10000 nM; at Cannabinoid receptor 2 [1], 147 nM. At Cannabinoid receptor 2 [2], the Emax stood at 30%. In addition, the “Ratio EC50” value in data set [3] is greater than 68.
With `CCCCCn1c(C)c(-c2ccccc2)c(=O)n(CC(=O)NC(C)(C)C)c1=O`, the half-maximal effective concentration (EC50) on Cannabinoid receptor 1 and on Cannabinoid receptor 2 [1] was greater than 10000 nM in each case.
For `Cc1cccc2c(=O)n(CC(=O)NC(C)(C)C)c(=O)n(CC3CC3)c12`, the figures for the EC50 on Cannabinoid receptor 1 and at Cannabinoid receptor 2 [1] were greater than 10000 nM and 309 nM, respectively. Moreover, at Cannabinoid receptor 2 [2], the Emax worked out at 110%. Further, the “Ratio EC50” value in data set [3] is reported as greater than 32.
In the same order, the values of `CCCCCn1c(=O)n(CC(=O)NC(C)(C)C)c(=O)c2c(OC)cccc21` are greater than 10000 nM, 1250 nM, 88% and greater than 8.
For `C=CCCn1c(=O)n(CC(=O)NC(C)(C)C)c(=O)c2cccc(C)c21`, in that order: greater than 10000 nM, 99.6 nM, 90% and greater than 100.
In the case of `CCCCCn1c(=O)n(CC(=O)NC2CCCCC2)c(=O)c2c(OC)cccc21`, the EC50 on Cannabinoid receptor 1 and at Cannabinoid receptor 2 [1] was greater than 10000 nM throughout.
Take `CCCCCn1c(=O)n(CC(=O)NC(C)(C)C)c(=O)c2c(C)cccc21`: the results for the EC50 on Cannabinoid receptor 1 and at Cannabinoid receptor 2 [1] were greater than 10000 nM and 14 nM, respectively. Also, the maximum response (Emax) on Cannabinoid receptor 2 [2] worked out at 77%. Further, the “Ratio EC50” value in data set [3] is recorded as greater than 715. The molecule further came in with a log partition coefficient (logP) at 20 h in data set [4] of 2.56.
`CCCCCn1c(=O)n(CC(=O)NC2CCCCC2)c(=O)c2c(C)cccc21`: the half-maximal effective concentration (EC50) at Cannabinoid receptor 1 is greater than 10000 nM; at Cannabinoid receptor 2 [1], 395 nM. Besides, on Cannabinoid receptor 2 [2], the maximal effect (Emax) was determined as 56%. The “Ratio EC50” value in data set [3] is greater than 25.
Take `CCCn1c(=O)n(CC(=O)NC(C)(C)C)c(=O)c2ccccc21`: the EC50 on Cannabinoid receptor 1 was greater than 10000 nM; on Cannabinoid receptor 2 [1], 1420 nM. The Emax on Cannabinoid receptor 2 [2] amounted to 75%. Further, the “Ratio EC50” value in data set [3] is listed as greater than 7.
For `CCCCn1c(=O)n(CC(=O)NC(C)(C)C)c(=O)c2cccc(C)c21`, in that order: greater than 10000 nM, 38.2 nM, 102% and greater than 262.
In the case of `CCCCCn1c(=O)n(CC(=O)NC(C)(C)C)c(=O)c2cccc(OC)c21`, the concentration giving a half-maximal response (EC50) at Cannabinoid receptor 1 and at Cannabinoid receptor 2 [1] was greater than 10000 nM in each case.
With `CCCCCn1c(=O)n(CC(=O)NC2CC2)c(=O)c2ccccc21`, the results for the concentration giving a half-maximal response (EC50) at Cannabinoid receptor 1 and at Cannabinoid receptor 2 [1] were greater than 10000 nM and 743 nM, respectively. For the same molecule, the Emax on Cannabinoid receptor 2 [2] came to 58%. Also, in data set [3], the “Ratio EC50” value is on record as greater than 13.
For the molecule `CCCCCn1c(C)c(-c2cccc(C)c2)c(=O)n(CC(=O)NC(C)(C)C)c1=O`, the 50% effective concentration (EC50) at Cannabinoid receptor 1 and at Cannabinoid receptor 2 [1] was greater than 10000 nM each time.
For the molecule `O=C(NCC1CCOCC1)c1cnc(Nc2ccc(Cl)cc2Cl)nc1C(F)(F)F` [GW842166X], the EC50 at Cannabinoid receptor 1 is greater than 10000 nM; at Cannabinoid receptor 2 [1], 343 nM. For the same molecule, the maximal response (Emax) at Cannabinoid receptor 2 [2] turned out to be 97%. In data set [3], the “Ratio EC50” value is greater than 29. The logP at 20 h in data set [4] came to 4.27.
`CCCCCn1c(C)cc(=O)n(CC(=O)NC2CCCCC2)c1=O`: the EC50 at Cannabinoid receptor 1 and at Cannabinoid receptor 2 [1] was greater than 10000 nM in each case.
`CCCn1c(=O)n(CC(=O)NC(C)(C)C)c(=O)c2c(C)cccc21`: the values for the EC50 at Cannabinoid receptor 1 and at Cannabinoid receptor 2 [1] were greater than 10000 nM and 113 nM, respectively. For the same molecule, the Emax at Cannabinoid receptor 2 [2] worked out at 113%. Moreover, in data set [3], the “Ratio EC50” value is reported as greater than 88.
In the same order, the values of `CCCCCn1c(=O)n(CC(=O)NCCCC)c(=O)c2ccccc21` are greater than 10000 nM, 78.6 nM, 78% and greater than 127.
In the same order, the values of `CCCCCn1c(=O)n(CC(=O)NCC(C)C)c(=O)c2ccccc21` are greater than 10000 nM, 370 nM, 81% and greater than 27.
Take `CCCCCn1c(=O)n(CC(=O)NC2CCCCC2)c(=O)c2c(Cl)cccc21`: the concentration for a half-maximal effect (EC50) at Cannabinoid receptor 1 and on Cannabinoid receptor 2 [1] was greater than 10000 nM throughout.
Turning to `CCCCCn1c(=O)n(CC(=O)NC(C)(C)C)c(=O)c2cccc(C)c21`, the figures for the EC50 at Cannabinoid receptor 1 and at Cannabinoid receptor 2 [1] were greater than 10000 nM and 27.7 nM, respectively. Further, the maximum response (Emax) on Cannabinoid receptor 2 [2] worked out at 99%. Also, the “Ratio EC50” value in data set [3] is listed as greater than 361.
`CCCCCn1c(C)c(Br)c(=O)n(CC(=O)NC(C)(C)C)c1=O`: the EC50 is greater than 10000 nM at Cannabinoid receptor 1 and 48.7 nM at Cannabinoid receptor 2 [1]. For the same molecule, the maximal effect (Emax) on Cannabinoid receptor 2 [2] came out at 74%. The “Ratio EC50” value in data set [3] is greater than 205. This molecule yielded a logP at 20 h in data set [4] of 2.24.
As for `CCCCn1c(=O)n(CC(=O)NC(C)(C)C)c(=O)c2c(C)cccc21`, the EC50 on Cannabinoid receptor 1 was greater than 10000 nM; on Cannabinoid receptor 2 [1], 23.5 nM. For the same molecule, the Emax on Cannabinoid receptor 2 [2] was 98%. The “Ratio EC50” value in data set [3] is reported as greater than 425.
Regarding `CCCCCn1c(C)c(I)c(=O)n(CC(=O)NC(C)(C)C)c1=O`, the 50% effective concentration (EC50) on Cannabinoid receptor 1 is greater than 10000 nM; at Cannabinoid receptor 2 [1], 178 nM. Further, at Cannabinoid receptor 2 [2], the maximal effect (Emax) amounted to 78%. Further, the “Ratio EC50” value in data set [3] was greater than 56.
As for `C=CCCn1c(=O)n(CC(=O)NC(C)(C)C)c(=O)c2c(C)cccc21`, the figures for the EC50 on Cannabinoid receptor 1 and on Cannabinoid receptor 2 [1] were greater than 10000 nM and 46.8 nM, respectively. The Emax at Cannabinoid receptor 2 [2] worked out at 103%. Moreover, the “Ratio EC50” value in data set [3] is greater than 214.
In the same order, the values of `CCCCCn1c(C)cc(=O)n(CC(=O)NC(C)(C)C)c1=O` are greater than 10000 nM, 722 nM, 72% and greater than 13.
For `Cc1cccc2c1c(=O)n(CC(=O)NC(C)(C)C)c(=O)n2CC1CC1`, in that order: greater than 10000 nM, 68.3 nM, 106% and greater than 146.
Take `CCCCCn1c(=O)n(CC(=O)NC(C)C)c(=O)c2ccccc21`: the EC50 at Cannabinoid receptor 1 is greater than 10000 nM; at Cannabinoid receptor 2 [1], 214 nM. For the same molecule, on Cannabinoid receptor 2 [2], the maximum response (Emax) amounted to 65%. Besides, in data set [3], the “Ratio EC50” value was greater than 47.
For `CCCCCn1c(C)c(C2CC2)c(=O)n(CC(=O)NC(C)(C)C)c1=O`, in that order: greater than 10000 nM, 270 nM, 71% and greater than 37.
In the case of `CCCCCn1c(=O)n(CC(=O)NC2CCCCC2)c(=O)c2ccccc21`, the EC50 on Cannabinoid receptor 1 and at Cannabinoid receptor 2 [1] was greater than 10000 nM throughout.
For the molecule `CCCCCn1c(=O)n(CC(=O)NCCCC)c(=O)c2c(C)cccc21`, the results for the EC50 on Cannabinoid receptor 1 and at Cannabinoid receptor 2 [1] were greater than 10000 nM and 468 nM, respectively. In addition, at Cannabinoid receptor 2 [2], the maximal effect (Emax) was found to be 83%. In data set [3], the “Ratio EC50” value is greater than 21.
In the same order, the values of `CCCCCn1c(C)c(Cl)c(=O)n(CC(=O)NC(C)(C)C)c1=O` are greater than 10000 nM, 227 nM, 65% and greater than 44.
On to `CCCCCn1c(=O)n(CC(=O)NC(C)(C)C)c(=O)c2cccc(Cl)c21`, for which the EC50 at Cannabinoid receptor 1 was greater than 10000 nM; at Cannabinoid receptor 2 [1], 52.7 nM. The maximum response (Emax) on Cannabinoid receptor 2 [2] turned out to be 118%. In addition, the “Ratio EC50” value in data set [3] was greater than 190.
